Data reported in paper PMC12858634, “Functional characterisation of Target of Rapamycin (TOR) signalling in Physcomitrella” (Plant Cell Reports, 2026).

Target: T1, PpFKBP12 (Physcomitrium patens, UniProt A0A2K1L9Z1, M56K/G57Q/R58E)
T1 construct: gene LOC112274967
Assay: yeast fkbp12 deletion complementation, growth spot assay
Format: cell-based
Details: rapamycin 100 or 200 nM, galactose medium, 30 °C, 5 days; acts as FKBP12-rapamycin complex on host yeast TOR

T1 sequence (A0A2K1L9Z1 entry or part of it M56K/G57Q/R58E): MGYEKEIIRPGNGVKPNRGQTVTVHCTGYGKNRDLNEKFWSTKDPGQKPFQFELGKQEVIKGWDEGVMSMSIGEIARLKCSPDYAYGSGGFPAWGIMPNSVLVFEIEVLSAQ

CO[C@H]1C[C@@H]2CC[C@@H](C)[C@@](O)(O2)C(=O)C(=O)N2CCCC[C@H]2C(=O)O[C@H]([C@H](C)C[C@@H]2CC[C@@H](O)[C@H](OC)C2)CC(=O)[C@H](C)/C=C(\C)[C@@H](O)[C@@H](OC)C(=O)[C@H](C)C[C@H](C)/C=C/C=C/C=C/1C [rapamycin]
yeast fkbp12 deletion complementation, growth spot assay: all but PpFKBP12^W40D complemented the rapamycin-resistant phenotype of fkbp12Δ cells
